From publication PMC4911353, “Pharmacologic Inhibition of Host Phosphodiesterase-4 Improves Isoniazid-Mediated Clearance of Mycobacterium tuberculosis” (Frontiers in Immunology, 2016)

System: Mtb-infected mouse lungs
Test: Genome-wide lung transcriptome (microarray, IPA network/GO analysis) of Mtb-infected mice
Format: in vivo

## CCOc1cc([C@@H](CS(C)(=O)=O)N2Cc3cccc(NC(=O)C4CC4)c3C2=O)ccc1OC [CC-11050, N-[2-[(1S)-1-(3-ethoxy-4-methoxyphenyl)-2-(methylsulfonyl)ethyl]-2,3-dihydro-3-oxo-1H-isoindol-4-yl]-(9Cl) cyclopropanecarboxamide]
Lung inflammation network
  TIMP1 expression: 0
  TLR2 expression: 0
  TLR4 expression: 0
  TNFAIP8L2 expression: 0
  TNFRSF1B expression: 0
  TNFRSF4 expression: 0
  TNFRSF9 expression: 0
  TNFRSF25 expression: 0
  TNFSF15 expression: 0
  TOP2A expression: 0
  TRAF3IP2 expression: 0
  TRAF6 expression: 0
  TRPM2 expression: 0
  mir-15 expression: -1.286
  mir-19 expression: 0
  mir-25 expression: 0
  mir-27 expression: 0
  mir-30 expression: 0
  mir-155 expression: 0
  mir-181 expression: 0
TNF-a regulon network
  ABCC1 expression: 0
  ABCC3 expression: 0
  ABCD2 expression: 0
  ABCG2 expression: 0
  ABR expression: 0
  ABTB2 expression: 0
  ACADM expression: 0
  ACE expression: 1.167
  ACOX1 expression: 0
  ACSL1 expression: 0
  ADAM8 expression: 0
  ADAMTS5 expression: 0
  ADIPOQ expression: 0
  ADM expression: 0
  ADRB3 expression: 0
  AEBP1 expression: 0
  AGT expression: 0
  AK2 expression: 0
  ALAD expression: 0
  ALDH3A1 expression: 0
  ALOX5 expression: 0
  ANGPT2 expression: 0
  ANGPTL4 expression: 1.8298
  ANXA11 expression: 0
  AOC3 expression: 0
  APLN expression: 0
  APOBEC3B expression: 0
  APOC2 expression: 0
  AQP1 expression: 0
  AQP7 expression: 0
  ARF4 expression: 1.158
  ASGR1 expression: 0
  ASS1 expression: 0
  AVPR1A expression: 0
  Abcb1b expression: 0
  Aldh1a7 expression: 0
  B2M expression: 0
  B4GALT1 expression: 0
  BCKDHA expression: 0
  BCKDHB expression: 0
  BCL2A1 expression: 0
  BCL2L13 expression: 1.114
  BCL3 expression: 0
  BGN expression: 0
  BHLHE40 expression: 1.386
  BIRC2 expression: 0
  BIRC3 expression: 0
  BIRC5 expression: 0
  BMP4 expression: 0
  BMPR1A expression: 0
  BST2 expression: 0
  BTG1 expression: 0
  BUB1B expression: 0
  C3 expression: 0
  C10orf10 expression: 0
  C11orf82 expression: 0
  C21orf33 expression: 0
  CASP4 expression: 0
  CASP6 expression: 0
  CASP7 expression: 0
  CAT expression: 0
  CCL1 expression: 0
  CCL4 expression: 0
  CCL7 expression: 0
  CCL19 expression: 0
  CCL20 expression: 0
  CCR8 expression: 0
  CD3E expression: 0
  CD5 expression: 0
  CD28 expression: 0
  CD40 expression: 0
  CD69 expression: 0
  CD80 expression: 0
  CD82 expression: 0
  CD83 expression: 0
  CD247 expression: 0
  CD274 expression: 0
  CDC25C expression: 0
  CDH2 expression: 0
  CDH13 expression: 0
  CDKN2C expression: 0
  CDO1 expression: 1.459
  CEBPD expression: 0
  CELF1 expression: 0
  CFB expression: 0
  CFD expression: 0
  CFLAR expression: 0
  CH25H expression: 0
  CHST2 expression: 0
  CHST4 expression: 0
  CIB2 expression: 0
  CIDEC expression: 0
  CLDN11 expression: 0
  CLEC4E expression: 0
  CLEC5A expression: 0
  COL1A2 expression: 0
  COTL1 expression: 0
  CPT1A expression: 1.211
  CPT2 expression: 0
  CRADD expression: 0
  CREM expression: 0
  CSF1R expression: 0
  CSF1 expression: 0
  CST7 expression: 0
  CTNNB1 expression: 0
  CTSB expression: 0
  CTSC expression: 0
  CTSF expression: 0
  CTSZ expression: 0
  CX3CR1 expression: 0
  CXCL2 expression: 0
  CXCL6 expression: 0
  CXCL9 expression: 0
  CXCL10 expression: 0
  CXCL11 expression: 0
  CXCL13 expression: 0
  CXCL16 expression: 0
  CXCR2 expression: 0
  CYBA expression: 0
  CYP1A1 expression: 0
  CYP2E1 expression: 0
  CYP7B1 expression: 0
  CYTH3 expression: 0
  CYTIP expression: 0
  DAG1 expression: 0
  DAXX expression: 0
  DBI expression: 0
  DBT expression: 0
  DCN expression: 0
  DDX58 expression: 0
  DENND4A expression: -1.412
  DHRS3 expression: 0
  DNMT1 expression: 0
  DPP4 expression: 0
  DUSP2 expression: 0
  DUSP5 expression: 0
  DUSP14 expression: 0
  EBI3 expression: 0
  ECH1 expression: 1.206
  EDN1 expression: 0
  EFNA1 expression: 0
  EFNB2 expression: 0
  EGFR expression: 1.258
  EGR2 expression: 0
  EIF2AK2 expression: 0
  EMP1 expression: 1.328
  ENG expression: 0
  ENPP3 expression: 0
